# Laboratory results published in the supplement of paper PMC10307832.
# Columns and labels:
# Test in all cases: relative viability (nuclei count vs DMSO), 5 days (fraction); higher = more cells survive
# [1] = compound: CC1=CC(=C(N1C2=CC=C(C=C2)Cl)C)C(=O)CN3CCCCC3 [IU1-47] + Cc1nc(NC(=O)N2CCC[C@H]2C(N)=O)sc1-c1ccnc(C(C)(C)C(F)(F)F)c1 [Alpelisib] (partner 2 µM)
# Outline: (§1)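 Relative viability is defined as nuclei in treated wells over nuclei in vehicle wells. Duplicate plates were run and medians reported. Lung cancer cell lines in 1536-well plates were dosed by pin tool one day after seeding, with one drug or with a fixed anchor-drug dose plus five library-drug doses (not always all listed) in √10 steps, and nuclei were counted after 5 days.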
# [2] = compound: CC1=CC(=C(N1C2=CC=C(C=C2)Cl)C)C(=O)CN3CCCCC3 [IU1-47] + CC(=O)c1c(C)c2cnc(Nc3ccc(N4CCNCC4)cn3)nc2n(C2CCCC2)c1=O [Palbociclib] (partner 0.5 µM)
# Outline: as §1
# [3] = compound: Cc1nc(C(=O)NCC(=O)O)c(O)c2ccc(Oc3ccccc3)cc12 [FG-4592] + CS(=O)(=O)N1CCN(Cc2cc3nc(-c4cccc5[nH]ncc45)nc(N4CCOCC4)c3s2)CC1 [Pictilisib] (partner 1 µM)
# Outline: as §1
# [4] = compound: Cc1nc(C(=O)NCC(=O)O)c(O)c2ccc(Oc3ccccc3)cc12 [FG-4592] + Nc1nc2[nH]cc(CCc3ccc(C(=O)N[C@@H](CCC(=O)O)C(=O)O)cc3)c2c(=O)[nH]1 [Pemetrexed] (partner 0.2 µM)
# Outline: as §1
Cell Line,relative viability ([1]; first compound 0.08 µM),relative viability ([1]; first compound 0.253 µM),relative viability ([1]; first compound 0.8 µM),relative viability ([1]; first compound 8 µM),relative viability ([2]; first compound 0.08 µM),relative viability ([2]; first compound 0.253 µM),relative viability ([2]; first compound 0.8 µM),relative viability ([2]; first compound 2.53 µM),relative viability ([2]; first compound 8 µM),relative viability ([3]; first compound 0.08 µM),relative viability ([3]; first compound 0.253 µM),relative viability ([3]; first compound 0.8 µM),relative viability ([3]; first compound 2.53 µM),relative viability ([3]; first compound 8 µM),relative viability ([4]; first compound 0.08 µM),relative viability ([4]; first compound 0.253 µM),relative viability ([4]; first compound 0.8 µM),relative viability ([4]; first compound 2.53 µM),relative viability ([4]; first compound 8 µM),relative viability ([1]; first compound 2.53 µM)
NCI-H1944,0.853,0.886,0.903,0.847,0.342,0.376,0.345,0.291,0.33,0.3,0.336,0.294,0.356,0.363,0.608,0.703,0.567,0.602,0.606,
LU99A,0.498,0.59,0.488,0.663,0.373,0.43,0.399,0.496,0.372,0.311,0.28,0.291,0.316,0.339,0.184,0.199,,0.182,0.199,0.627
SW 1573,0.905,0.758,0.664,0.839,0.357,0.385,0.379,0.509,0.31,0.504,0.402,0.443,0.56,0.484,0.753,0.638,0.805,0.809,0.535,0.756
NCI-H2347,0.958,1.05,1.11,1.11,0.39,0.474,0.436,0.43,0.438,0.0319,0.633,0.434,0.567,0.562,0.411,0.417,0.439,0.425,0.478,1.05
NCI-H2009,1.24,1.18,1.13,1.21,0.225,0.229,0.208,0.21,0.231,0.718,0.653,0.647,0.671,0.749,1.01,1.16,1,1.02,1.06,1.18
HCC-15,0.99,0.926,0.978,0.82,0.795,0.765,0.82,0.595,0.703,0.65,0.723,0.738,0.729,0.784,0.21,0.235,0.22,0.221,0.232,0.825
HCC-44,0.942,0.822,0.783,0.78,1.02,0.95,0.996,0.993,1.01,0.569,0.609,0.498,0.614,0.602,0.615,0.652,0.705,0.688,0.725,0.825
COR-L23,0.686,0.947,0.869,0.975,0.313,0.32,0.284,0.245,0.279,0.812,0.617,0.849,0.685,0.728,0.205,0.204,0.171,0.194,0.187,0.951
HCC-78,0.387,0.319,0.391,0.294,0.474,0.441,0.5,0.507,0.457,0.219,0.248,0.182,0.222,0.225,0.941,,0.901,0.871,0.909,0.327
NCI-H2087,1.23,1.01,1.15,0.909,0.204,0.302,0.239,0.174,0.25,0.934,0.707,0.903,0.809,0.836,0.604,0.565,0.658,,0.591,1.21
BEN,1.06,1.13,1.24,0.834,0.54,0.452,0.448,0.497,0.512,0.442,0.485,0.429,0.561,0.459,0.548,0.649,0.592,0.822,0.726,0.973
LCLC-103H,0.854,0.989,0.983,1.05,0.551,0.531,0.506,0.478,0.469,0.5,0.512,0.509,0.714,0.654,0.435,0.456,0.51,0.478,0.457,0.914
EKVX,1.21,1.08,1.04,0.741,0.391,0.397,0.419,,0.347,0.395,0.377,0.478,0.428,0.441,0.346,0.36,0.376,0.377,0.515,1.12
LXF-289,1.06,1.09,1.12,1.05,0.634,0.679,0.603,0.58,0.619,0.776,0.696,0.822,0.708,0.769,0.853,0.906,1.02,0.883,0.948,1.06
NCI-H650,1.28,1.14,1.2,1.01,0.361,0.332,0.312,0.373,0.288,0.879,0.916,0.739,0.801,0.872,0.978,0.871,0.848,0.812,0.726,1.09
NCI-H2085,1.04,0.973,1.02,0.856,0.444,0.458,0.488,0.463,0.496,0.356,0.425,0.426,0.438,0.449,0.934,0.769,0.81,0.863,1.07,0.975
NCI-H1793,0.83,0.683,0.901,0.665,0.306,,0.317,0.359,0.276,0.281,0.384,,0.228,0.354,,0.95,,0.833,0.782,

Cell Line,relative viability ([1]; first compound 0.08 µM),relative viability ([1]; first compound 0.253 µM),relative viability ([1]; first compound 0.8 µM),relative viability ([1]; first compound 8 µM),relative viability ([2]; first compound 0.08 µM),relative viability ([2]; first compound 0.253 µM),relative viability ([2]; first compound 0.8 µM),relative viability ([2]; first compound 2.53 µM),relative viability ([2]; first compound 8 µM),relative viability ([3]; first compound 0.08 µM),relative viability ([3]; first compound 0.253 µM),relative viability ([3]; first compound 0.8 µM),relative viability ([3]; first compound 2.53 µM),relative viability ([3]; first compound 8 µM),relative viability ([4]; first compound 0.08 µM),relative viability ([4]; first compound 0.253 µM),relative viability ([4]; first compound 0.8 µM),relative viability ([4]; first compound 2.53 µM),relative viability ([4]; first compound 8 µM),relative viability ([1]; first compound 2.53 µM)
LC-2-ad,0.897,0.951,0.919,0.767,0.498,0.509,0.484,,0.488,0.487,0.372,0.456,0.414,0.374,0.29,0.29,0.269,0.26,0.288,0.973
COR-L 105,1.29,1.06,1.11,0.783,0.479,0.449,0.399,0.388,0.438,0.372,0.326,0.328,0.266,0.318,1.03,0.92,1.13,1.14,0.877,1.16
NCI-H1355,0.89,0.948,0.894,0.79,0.422,0.414,0.41,,0.37,0.389,0.393,,0.379,0.366,1.07,0.942,,1.03,1.05,0.797
H3255,0.696,0.708,0.754,0.671,0.351,0.329,0.331,0.289,0.322,0.396,0.472,0.51,0.44,0.5,0.586,0.538,0.567,0.573,0.56,0.818
NCI-H1993,0.753,0.728,0.657,0.594,0.854,0.698,0.659,0.558,0.513,0.834,0.774,0.854,0.851,0.66,0.644,0.48,,0.487,0.594,0.725
NCI-H1734,0.645,0.714,0.65,0.708,0.353,0.355,0.314,0.367,0.322,0.417,0.47,0.405,0.482,0.491,0.407,0.408,0.419,0.422,0.397,
HOP-62,1.16,1.21,1.05,1.01,0.515,0.524,0.483,0.499,0.452,0.831,0.55,0.455,0.651,0.657,0.287,0.317,0.35,0.304,0.324,1.11
LOU-NH91,0.761,0.75,0.71,0.668,0.524,0.533,0.539,0.431,0.507,0.456,0.51,0.509,0.545,0.554,0.465,0.336,0.468,0.405,0.407,0.692
NCI-H2228,0.904,1.06,0.687,0.451,0.715,0.807,0.897,0.689,0.575,0.423,0.36,0.248,0.45,0.284,0.368,0.302,0.434,0.331,0.32,0.796
PC-14,1.03,0.987,1.12,0.782,0.547,0.69,0.635,0.675,0.419,0.681,0.752,0.756,0.624,0.73,0.128,0.138,0.129,0.131,0.148,1.02
NCI-H1437,1.13,0.967,0.921,0.718,0.284,0.281,0.344,0.282,0.294,0.447,0.437,0.337,0.37,0.269,0.32,0.31,0.349,0.32,0.274,1.05
NCI-H460,0.564,0.575,0.532,0.488,0.24,0.123,0.16,0.153,0.105,0.236,0.367,0.314,0.466,0.381,0.0673,0.0639,0.058,0.0799,0.0618,0.587
NCI-H1666,0.882,0.903,0.812,0.836,0.695,0.652,0.695,0.682,0.63,0.41,0.341,0.42,0.486,0.321,0.771,0.836,0.932,0.834,0.722,1.03
NCI-H1651,1.05,1.1,0.899,0.597,0.525,0.539,0.495,0.523,0.523,0.541,0.575,0.534,0.635,0.454,0.591,0.57,0.583,0.588,0.508,
NCI-H1755,1.04,1.03,1.03,0.8,0.44,0.518,0.461,0.46,0.436,0.303,0.4,0.306,0.442,0.444,0.417,0.483,0.46,0.4,0.453,0.978
NCI-H661,0.909,0.603,0.581,0.404,0.433,0.425,0.44,0.415,0.443,0.29,,0.431,0.473,0.371,0.904,0.903,0.944,0.894,1.02,0.593
